From US4420488A, “Quaternary 1,1-diphenyl-4-pyrrolidinium-2-butyne salts, a process for their production and medicaments containing these compounds” (Ludwig Heumann & Co. GmbH, priority 1980, dated 1983)
Read-outs that look alike come from different tables or passages of the source.

Tests used:
stress ulcer = assay: Anti-ulcerogenic effect, stress ulcer (Takagi, Okabe); format: in vivo; conditions: po, i.g.
Source text: (§1) The following Table summarizes the results of pharmacological studies conducted with the compound according to the invention, 1,1-diphenyl-4-pyrrolidinyl-2-butyne-1-ol-N-methyl ammonium bromide, and with butynoline phosphate as the comparison substance.
effect i.g. i.g. Jap. J. Pharmac. 18,

[1] = molecular target: T1, Mee-ileum (Cavia porcellus); assay: Spasmolytic effect in vitro (Mee-ileum) (Van Rossum); conditions: ACH, read-out: Spasmolytic effect in vitro pA2 (ACH) (converted)
T1 construct: in vitro (Mee-ileum); from tissue; host or cells: isolated ileum ('Mee-ileum', read as guinea pig ileum)
Source text: as §1
8.0 8.2 Arch. Int. Pharmaco-

Hi = assay: Broncholysis (guinea pig), Hi (Konzett, Rossler); format: in vivo; conditions: Cavia porcellus, iv
Source text: as §1
(§2) ACH 30 ACH 60 Rossler, R.,
(§3) Hi 500 Hi 1000 Arch. exp. Pharmacol.

[2] = Inhibition of the carbachol-induced secretion of saliva (rat), cholinolytic side effects (mod. Brown, Quinton); conditions: in vivo, po, i.g.
Source text: (§4) As already mentioned, the compounds according to the invention show better pharmacological properties than the known butynoline phosphate, particularly in regard to the broncholytic and anti-ulcerogenic effect obtainable therewith. Tests relating to inhibition of the carbachol-induced secretion of saliva and mydriasis have shown that the compounds according to the invention have fewer side effects than the known butynoline phosphate.
as §1
i.g. i.g. Brown, D. M., Quinton,
24 9.8 R. M., Brit. J. Pharma-

ACH = assay: Broncholysis (guinea pig), ACH (Konzett, Rossler); format: in vivo; conditions: Cavia porcellus, iv
Source text: as §1, §2, §3

[3] = Mydriasis, cholinolytic side effects (Pulewka); conditions: in vivo, po, i.g.
Source text: as §4, §1
i.g. i.g. exp. Pharmacol.

[4] = test system: carbachol-induced gastric secretion; assay: Inhibition of the carbachol-induced gastric secretion (Heidenhain cat) (Engler, Fritschi); format: in vivo; conditions: Felis catus, po, i.g.
Source text: as §1
0.3 0.3 Schmiedeberg's Arch.
(Heidenhain cat) Pharmacol. 297,

[5] = in words; cited from earlier work

T1 sequence (H0W1Z3 1-590): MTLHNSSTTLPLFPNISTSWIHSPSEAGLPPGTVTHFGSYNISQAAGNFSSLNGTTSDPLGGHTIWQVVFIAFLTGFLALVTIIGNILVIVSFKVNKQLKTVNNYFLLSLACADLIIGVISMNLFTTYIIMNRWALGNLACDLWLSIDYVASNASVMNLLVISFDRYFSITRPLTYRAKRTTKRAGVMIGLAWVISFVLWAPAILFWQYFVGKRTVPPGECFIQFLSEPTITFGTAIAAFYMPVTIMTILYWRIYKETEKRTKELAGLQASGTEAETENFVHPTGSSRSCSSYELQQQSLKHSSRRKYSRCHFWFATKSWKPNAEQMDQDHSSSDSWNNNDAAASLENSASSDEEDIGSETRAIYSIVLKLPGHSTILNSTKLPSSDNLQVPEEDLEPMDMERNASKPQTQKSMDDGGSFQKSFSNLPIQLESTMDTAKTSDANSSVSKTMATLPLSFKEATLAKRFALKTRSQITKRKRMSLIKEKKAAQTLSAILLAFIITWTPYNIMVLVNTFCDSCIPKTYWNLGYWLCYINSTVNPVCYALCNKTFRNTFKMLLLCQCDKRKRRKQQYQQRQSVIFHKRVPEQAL

## C[N+]1(CC#CC(O)(c2ccccc2)c2ccccc2)CCCC1 [1,1-diphenyl-4-pyrrolidinyl-2-butyne-1-ol-N-methyl ammonium bromide]
Stress ulcer
  ED50: 25 mg/kg
[1]
  Kb: 10 nM
Hi
  ED50: 0.5 mg/kg
[2]
  ED50: 24 mg/kg
ACH
  ED50: 0.03 mg/kg
[3]
  ED50: 128 mg/kg
[4]; read-out: Inhibition of the carbachol-induced gastric secretion ED50
  ED50: 0.3 mg/kg

## OC(C#CCN1CCCC1)(c1ccccc1)c1ccccc1 [Butynoline phosphate, phosphate of 1,1-diphenyl-4-pyrrolidino-2-butyne-1-ol]
Stress ulcer
  ED50: 150 mg/kg
[1]
  Kb: 6.31 nM
Hi
  ED50: 1 mg/kg
[5]
  pharmacological activity (known): anti-cholinergic spasmolytic and anti-ulcerogenic activity
[2]
  ED50: 9.8 mg/kg
ACH
  ED50: 0.06 mg/kg
[3]
  ED50: 16 mg/kg
[4]; butynoline phosphate column, read-out: Inhibition of the carbachol-induced gastric secretion ED50 (ACH)
  ED50: 0.3 mg/kg
